Results published in ChEMBL document CHEMBL4334461, “Taicrypnacids A and B, a Pair of C37 Heterodimeric Diterpenoid Stereoisomers from Taiwania cryptomerioides” (J Nat Prod, 2019).
pIC50: −log10 of the molar value. Activity calls are given as the source filed them.

Key:
[1] = tested on: HCT-116; experiment: Cytotoxicity against human HCT116 cells measured after 24 hrs by MTT assay; type: functional, cell-based; settings: HCT-116, 24 h
[2] = tested on: MCF7; experiment: Cytotoxicity against human MCF7 cells measured after 24 hrs by MTT assay; type: functional, cell-based; settings: MCF7, 24 h
[3] = tested on: U2OS; experiment: Cytotoxicity against human U2OS cells measured after 24 hrs by MTT assay; type: functional, cell-based
[4] = tested on: MCF7; experiment: Induction of endoplasmic reticular stress in human MCF7 cells assessed as upregulation of IRE1a by Western blot analysis; type: functional, cell-based
[5] = tested on: MCF7; experiment: Induction of apoptosis in human MCF7 cells assessed as activation of cleaved caspase-9; type: functional, cell-based
[6] = tested on: MCF7; experiment: Induction of endoplasmic reticulum vacuolation in human MCF7 cells assessed as increase in vacuole formation at 5 to 20 uM measured after 24 hrs by ER-tracker and Hoechst 33342 staining based confocal microscopy; type: functional, cell-based
[7] = tested on: MCF7; experiment: Induction of morphological changes in human MCF7 cells assessed as change in vacuole at 5 to 20 uM measured after 24 hrs by optical microscopy analysis; type: functional, cell-based
[8] = tested on: MCF7; experiment: Induction of apoptosis in human MCF7 cells assessed as activation of cleaved caspase-3; type: functional, cell-based
[9] = tested on: MCF7; experiment: Induction of apoptosis in human MCF7 cells assessed as activation of cleaved caspase-7; type: functional, cell-based
[10] = tested on: MCF7; experiment: Induction of endoplasmic reticular stress in human MCF7 cells assessed as upregulation of CHOP by Western blot analysis; type: functional, cell-based
[11] = tested on: MCF7; experiment: Induction of ROS-mediated autophagy in human MCF7 cells assessed as downregulation of p62; type: functional, cell-based
[12] = tested on: MCF-10A; experiment: Cytotoxicity against human MCF10A cells at 3.125 to 50 uM measured after 24 hrs by MTT assay; type: cell-based
[13] = tested on: MCF7; experiment: Induction of cell death in human MCF7 cells assessed as increase in ROS level measured after 24 hrs by DCFHDA probe based flow cytometry; type: functional
[14] = tested on: MCF7; experiment: Induction of mitochondria-mediated apoptosis in human MCF7 cells; type: functional, cell-based
[15] = tested on: MCF7; experiment: Induction of apoptosis in human MCF7 cells assessed as activation of cleaved PARP; type: functional, cell-based
[16] = tested on: MCF7; experiment: Induction of ROS-mediated autophagy in human MCF7 cells assessed as increase in autophagosome numbers; type: functional, cell-based
[17] = tested on: MCF7; experiment: Induction of endoplasmic reticular stress in human MCF7 cells assessed as upregulation of GRP78 by Western blot analysis; type: functional, cell-based
[18] = tested on: MCF7; experiment: Induction of endoplasmic reticular stress in human MCF7 cells assessed as upregulation of XBP1s by Western blot analysis; type: functional, cell-based
[19] = tested on: MCF7; experiment: Induction of mitochondrial morphological changes in human MCF7 cells assessed as dilation of mitochondria at 5 to 20 uM measured after 24 hrs by Mito-tracker and Hoechst 33342 staining based confocal microscopy; type: functional, cell-based
[20] = tested on: MCF7; experiment: Induction of cell death in human MCF7 cells assessed as increase in intracellular calcium measured after 24 hrs by Fluo-4/AM probe based confocal microscopic analysis; type: functional
[21] = tested on: MCF7; experiment: Induction of ROS-mediated autophagy in human MCF7 cells assessed as increase in LC3-2/LC3-1 ratio; type: functional, cell-based

C=C1CC[C@@H]2[C@](C)(CCC[C@@]2(C)C(=O)OC)[C@H]1C/C=C(\C)[C@@H]1C[C@@H]2C[C@H]3C(C)(C)CCC[C@]3(C)c3ccc(O)c(c32)O1
< 4.30: pIC50 [1] | pIC50 [2] | pIC50 [3]

C=C1CC[C@@H]2[C@](C)(CCC[C@@]2(C)C(=O)O)[C@H]1C/C=C(\C)[C@@H]1C[C@@H]2C[C@H]3C(C)(C)CCC[C@]3(C)c3ccc(O)c(c32)O1
5.08: pIC50 [3]
Toxic: Activity [12]
5.13: pIC50 [2]
5.12: pIC50 [1]
active: Activity [4] | Activity [5] | Activity [6] | Activity [7] | Activity [8] | Activity [9] | Activity [10] | Activity [11] | Activity [13] Dose-dependent effect | Activity [14] | Activity [15] | Activity [16] | Activity [17] | Activity [18] | Activity [19] | Activity [20] Dose-dependent effect | Activity [21]

C=C1CC[C@@H]2[C@](C)(CCC[C@@]2(C)C(=O)O)[C@H]1C/C=C(\C)[C@H]1C[C@H]2C[C@H]3C(C)(C)CCC[C@]3(C)c3ccc(O)c(c32)O1
5.00: pIC50 [2]
5.01: pIC50 [3]
5.11: pIC50 [1]
